Test results published in ChEMBL document CHEMBL1681718, “Hepatitis C NS5B polymerase inhibitors: functional equivalents for the benzothiadiazine moiety” (Bioorg Med Chem Lett, 2011).

How the values were obtained:
Hepatitis C virus [1] = assay: Antiviral activity against HCV 1a isolate H77 infected in EN5-3 cells by SEAP reporter gene assay; assay type: functional, organism-based, Hepacivirus hominis; details: genotype 1a H77, EN5-3
[2] = Inhibition of HCV 1a H77 NS5B polymerase after 3 hrs by [3H]UTP incorporation assay; set-up: species or system Hepatitis C virus (isolate H77)
[3] = Inhibition of HCV 1b BK NS5B polymerase after 3 hrs by [3H]UTP incorporation assay; set-up: species or system Hepatitis C virus (isolate BK)
Hepatitis C virus [4] = assay: Antiviral activity against HCV 1b N infected in EN5-3 cells by SEAP reporter gene assay; assay type: functional, organism-based, Hepacivirus hominis; details: genotype 1b strain N

Compound	EC50 (Hepatitis C virus [1])	IC50 [2]	IC50 [3]	EC50 (Hepatitis C virus [4])
CC(C)(C)CC[C@@]1(C)C(=O)/C(=C2/C=Cc3cc(NS(C)(=O)=O)ccc3N2)C(=O)c2ccccc21	82 nM	17 nM	29 nM	22 nM
CC(C)(C)CC[C@@]1(C)C(=O)/C(=C2/C=Cc3ccccc3N2)C(=O)c2ccccc21		1680 nM	5550 nM	
CC1=C/C(=C2\C(=O)c3ccccc3[C@@](C)(CCC(C)(C)C)C2=O)Nc2ccc(NS(C)(=O)=O)cc21	135 nM	32 nM	52 nM	20 nM
CC(C)CCC1=C/C(=C2\C(=O)c3ccccc3[C@@](C)(CCC(C)(C)C)C2=O)Nc2ccc(NS(C)(=O)=O)cc21		4300 nM	1020 nM	
CN(C)C(=O)C1=C/C(=C2\C(=O)c3ccccc3[C@@](C)(CCC(C)(C)C)C2=O)Nc2ccc(NS(C)(=O)=O)cc21	932 nM	72 nM	238 nM	99 nM
CNC(=O)C1=C/C(=C2\C(=O)c3ccccc3[C@@](C)(CCC(C)(C)C)C2=O)Nc2ccc(NS(C)(=O)=O)cc21	1040 nM	133 nM	333 nM	245 nM
CCOC(=O)C1=C/C(=C2\C(=O)c3ccccc3[C@@](C)(CCC(C)(C)C)C2=O)Nc2ccc(NS(C)(=O)=O)cc21	3080 nM	315 nM	739 nM	660 nM
CC(C)(C)CC[C@@]1(C)C(=O)/C(=C2/C=C(CO)c3cc(NS(C)(=O)=O)ccc3N2)C(=O)c2ccccc21	781 nM	12 nM	56 nM	50 nM
CC(C)(C)CC[C@@]1(C)C(=O)/C(=C2/C=C(C=O)c3cc(NS(C)(=O)=O)ccc3N2)C(=O)c2ccccc21	1200 nM	15 nM	25 nM	168 nM
CC(C)(C)CC[C@@]1(C)C(=O)/C(=C2/C=C(C(=O)O)c3cc(NS(C)(=O)=O)ccc3N2)C(=O)c2ccccc21	3320 nM	3 nM	5 nM	221 nM
CC(C)(C)CC[C@@]1(C)C(=O)C(C2=NCc3cc(NS(C)(=O)=O)ccc3N2)=C(O)c2ccccc21		830 nM	4200 nM	
CC(C)(C)CC[C@@]1(C)C(=O)C(C2=NS(=O)(=O)c3cc(NS(C)(=O)=O)ccc3N2)=C(O)c2ccccc21	4 nM	4 nM	7 nM	2 nM
